We go through 16 compounds from patent US10221161B2, “Inhibitors of plasma kallikrein” (Kalvista Pharmaceuticals Limited, priority 2013, dated 2019).

Usually IC50 stands for the midpoint of a concentration-inhibition curve.

One experiment has as its target Human KLK1 (Homo sapiens (Human), UniProt P06870). Put plainly: Determination of the IC50 for KLK1 (fluorogenic substrate H-DVal-Leu-Arg-AFC). It counts as biochemical. The following applies: human KLK1, 37° C. An outline of the steps:
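Inhibition of human KLK1 (Callbiochem) was measured in vitro following standard published methods. The enzyme was incubated at 37° C. with the fluorogenic substrate H-DVal-Leu-Arg-AFC across a range of test compound concentrations. Residual activity, taken as the initial reaction rate, was followed by […], and IC50 values were calculated.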

The target in the next experiment is Human plasma kallikrein (Homo sapiens (Human), UniProt P03952). In words: Determination of the IC50 for plasma kallikrein (fluorogenic substrate H-DPro-Phe-Arg-AFC). Format: biochemical. The following applies: 37° C., read-out: IC50 (human PKal). As for the experimental part:
Determination of the IC50 Plasma Kallikrein Plasma kallikrein inhibitory activity in vitro was determined using standard published methods (see e.g. Johansen et al., Int. J. Tiss. […] Shori et al., Biochem. Pharmacol., 1992, 43, 1209; Stürzebecher et al., Biol. Chem. Hoppe-Seyler, 1992, 373, 1025). Human plasma kallikrein (Protogen) was incubated at 37° C. with the fluorogenic substrate […] and various concentrations of the test compound.

Chain of Human plasma kallikrein (P03952 391-638 limits assumed): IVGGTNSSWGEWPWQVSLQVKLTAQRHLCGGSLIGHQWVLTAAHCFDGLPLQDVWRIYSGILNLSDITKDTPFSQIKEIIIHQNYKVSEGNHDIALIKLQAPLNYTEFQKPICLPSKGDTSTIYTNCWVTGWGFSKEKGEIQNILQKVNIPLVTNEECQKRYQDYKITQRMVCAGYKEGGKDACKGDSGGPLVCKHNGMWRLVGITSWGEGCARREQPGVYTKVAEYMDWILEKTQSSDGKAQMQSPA
Chain of Human plasma kallikrein (P03952 20-390 partner limits assumed): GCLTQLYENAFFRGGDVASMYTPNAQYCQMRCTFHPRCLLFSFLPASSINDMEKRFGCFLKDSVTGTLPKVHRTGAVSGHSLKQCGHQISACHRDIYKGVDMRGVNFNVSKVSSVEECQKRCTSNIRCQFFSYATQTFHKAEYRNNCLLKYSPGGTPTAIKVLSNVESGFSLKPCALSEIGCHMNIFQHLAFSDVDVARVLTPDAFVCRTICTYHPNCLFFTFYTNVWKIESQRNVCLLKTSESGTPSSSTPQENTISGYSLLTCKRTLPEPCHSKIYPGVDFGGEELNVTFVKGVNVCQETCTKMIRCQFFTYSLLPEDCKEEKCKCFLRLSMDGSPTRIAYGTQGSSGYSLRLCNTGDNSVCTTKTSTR
Chain of Human KLK1 (P06870 25-262): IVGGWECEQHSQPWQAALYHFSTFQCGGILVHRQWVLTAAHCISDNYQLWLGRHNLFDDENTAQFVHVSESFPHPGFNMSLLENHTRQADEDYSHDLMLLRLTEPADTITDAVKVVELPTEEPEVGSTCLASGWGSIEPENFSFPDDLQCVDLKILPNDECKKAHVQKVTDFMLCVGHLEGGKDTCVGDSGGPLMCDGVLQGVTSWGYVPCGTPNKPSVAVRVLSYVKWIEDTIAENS

In the case of `CCN(CC)c1cc(Cc2cncc(C(=O)NCc3ccc4c(N)nccc4c3)c2)ccn1` [Example 87, N-[(1-Aminoisoquinolin-6-yl)methyl]-5-{[2-(diethylamino)pyridin-4-yl]methyl}pyridine-3-carboxamide], the IC50 against Human KLK1 was determined as 4.98 µM; at Human plasma kallikrein, 0.358 µM.

On to `Nc1nccc2cc(CNC(=O)c3cncc(Cc4ccnc(N5CCCC5=O)c4)c3)ccc12` [Example 76, N-[(1-Aminoisoquinolin-6-yl)methyl]-5-{[2-(2-oxopyrrolidin-1-yl)pyridin-4-yl]methyl}pyridine-3-carboxamide], for which the IC50 against Human KLK1 was 3.75 µM; at Human plasma kallikrein, 0.242 µM.

As for `Nc1nccc2cc(CNC(=O)c3cncc(Cc4ccc(N5CCC(C(=O)O)C5)nc4)c3)ccc12` (centres unmarked) [Example 75, 1-{5-[(5-{[(1-Aminoisoquinolin-6-yl)methyl]carbamoyl}pyridin-3-yl)methyl]pyridin-2-yl}pyrrolidine-3-carboxylic acid], the IC50 on Human KLK1 is > 10 µM; on Human plasma kallikrein, 6.12 µM.

As to `CC1(C)CCCN1c1cc(Cc2cncc(C(=O)NCc3ccc4c(N)nccc4c3)c2)ccn1` [Example 84, N-[(1-Aminoisoquinolin-6-yl)methyl]-5-{[2-(2,2-dimethylpyrrolidin-1-yl)pyridin-4-yl]methyl}pyridine-3-carboxamide], the results for the IC50 at Human KLK1 and at Human plasma kallikrein were 10.7 µM and 0.683 µM, respectively.

Consider `Nc1nccc2cc(CNC(=O)c3cncc(Cc4cccc(Cn5cccn5)c4)c3)ccc12` [Example 32, N-[(1-Aminoisoquinolin-6-yl)methyl]-5-{[3-(pyrazol-1-ylmethyl)phenyl]methyl}pyridine-3-carboxamide], for which the IC50 against Human KLK1 amounted to 9.53 µM; on Human plasma kallikrein, 0.237 µM.

For `CN(C)[C@@H]1CCN(c2cc(Cc3cncc(C(=O)NCc4ccc5c(N)nccc5c4)c3)ccn2)C1` (stereo in doubt) [Example 90, N-[(1-Aminoisoquinolin-6-yl)methyl]-5-({2-[3-(dimethylamino)pyrrolidin-1-yl]pyridin-4-yl}methyl)pyridine-3-carboxamide], the figures for the IC50 on Human KLK1 and on Human plasma kallikrein were 3.88 µM and 1.55 µM, respectively.

With `Nc1nccc2cc(CNC(=O)c3cncc(Cc4ccnc(N5CCCC5CO)c4)c3)ccc12` (centres unmarked) [Example 89, N-[(1-Aminoisoquinolin-6-yl)methyl]-5-({2-[2-(hydroxymethyl)pyrrolidin-1-yl]pyridin-4-yl}methyl)pyridine-3-carboxamide], the figures for the IC50 against Human KLK1 and at Human plasma kallikrein were 4.84 µM and 0.104 µM, respectively.

On to `Cc1cnn(Cc2ccc(Cc3cncc(C(=O)NCc4ccc5c(N)nccc5c4)n3)cc2)c1` [Example 9, N-[(1-Aminoisoquinolin-6-yl)methyl]-6-({4-[(4-methylpyrazol-1-yl)methyl]phenyl}methyl)pyrazine-2-carboxamide], for which the concentration for half-maximal inhibition (IC50) at Human KLK1 was found to be 5.34 µM; at Human plasma kallikrein it was 0.0308 µM.

With `Cc1cnn(CCOCc2cncc(C(=O)NCc3ccc4c(N)nccc4c3)c2)c1` [Example 40, N-[(1-Aminoisoquinolin-6-yl)methyl]-5-{[2-(4-methylpyrazol-1-yl)ethoxy]methyl}pyridine-3-carboxamide], the 50% inhibitory concentration (IC50) stood at 4.87 µM against Human KLK1 and 0.127 µM at Human plasma kallikrein.

For `CC1CCN(c2ccc(Cc3cncc(C(=O)NCc4ccc5c(N)nccc5c4)c3)cn2)C1` (centres unmarked) [Example 61, N-[(1-Aminoisoquinolin-6-yl)methyl]-5-{[6-(3-methylpyrrolidin-1-yl)pyridin-3-yl]methyl}pyridine-3-carboxamide], the concentration for half-maximal inhibition (IC50) at Human KLK1 was 6.55 µM; at Human plasma kallikrein, 0.137 µM.

For the compound `Nc1nccc2cc(CNC(=O)c3cncc(Cc4ccnc(N5CCC(O)C5)c4)c3)ccc12` (centres unmarked) [Example 81, N-[(1-Aminoisoquinolin-6-yl)methyl]-5-{[2-(3-hydroxypyrrolidin-1-yl)pyridin-4-yl]methyl}pyridine-3-carboxamide], the results for the concentration for half-maximal inhibition (IC50) against Human KLK1 and at Human plasma kallikrein were 9.57 µM and 0.674 µM, respectively.

As to `Nc1nccc2cc(CNC(=O)c3cncc(CN4CCN(Cc5cccc(F)c5)CC4)c3)ccc12` [Example 46, N-[(1-Aminoisoquinolin-6-yl)methyl]-5-({4-[(3-fluorophenyl)methl]piperazin-1-yl}methyl)pyridine-3-carboxamide], the IC50 against Human KLK1 stood at 29.2 µM; on Human plasma kallikrein, 7.51 µM.

Consider `Nc1nccc2cc(CNC(=O)c3ccc(=O)n(Cc4ccc(Cn5ccccc5=O)cc4)c3)ccc12` [Example 5, N-[(1-Aminoisoquinolin-6-yl)methyl]-6-oxo-1-({4-[(2-oxopyridin-1-yl)methyl]phenyl}methyl)pyridine-3-carboxamide], for which the IC50 against Human KLK1 is 28.9 µM; on Human plasma kallikrein, 0.0247 µM.

As for `CC(C)N(C)c1ccc(Cc2cncc(C(=O)NCc3ccc4c(N)nccc4c3)c2)cn1` [Example 73, N-[(1-Aminoisoquinolin-6-yl)methyl]-5-({6-[isopropyl(methyl)amino]pyridin-3-yl}methyl)pyridine-3-carboxamide], the half-maximal inhibitory concentration (IC50) at Human KLK1 amounted to 6.69 µM; at Human plasma kallikrein, 0.0511 µM.

As for `Cc1ccc2cc(Cc3cnc(O)c(C(=O)NCc4ccc5c(N)nccc5c4)c3)ccc2n1` [Example 20, N-[(1-Aminoisoquinolin-6-yl)methyl]-5-[(2-methylquinolin-6-yl)methyl]-2-oxo-1H-pyridine-3-carboxamide], the values for the IC50 on Human KLK1 and on Human plasma kallikrein were 2.49 µM and 0.621 µM, respectively.

`Cc1cnn(Cc2ccc(Cc3cncc(C(=O)NCc4ccc(CN)c(F)c4)c3)cc2)c1` [Example 96, N-{[4-(Aminomethyl)-3-fluorophenyl]methyl}-5-({4-[(4-methylpyrazol-1-yl)methyl]phenyl}methyl)pyridine-3-carboxamide]: the IC50 is > 40 µM on Human KLK1 and 0.365 µM at Human plasma kallikrein.
